Literature values, collected in patent US20170020833A1, “METHOD FOR TREATING AND/OR PREVENTING ACNE SCARS WITH A FIXED COMBINATION OF ADAPALENE OR ITS SALTS AND BENZOYL PEROXIDE” (GALDERMA RESEARCH & DEVELOPMENT, priority 2014, published 2017).

Test system: procollagen, MMP-1, 3 and MMP-9 in photodamage skin
Conditions: oral or topical; leading to MMP-1, 3 and MMP-9 decrease in relation to treatment duration

Structure (SMILES): CC1=C(/C=C/C(C)=C/C=C/C(C)=C\C(=O)O)C(C)(C)CCC1 [isotretinoin]
- Effect on UV-induced loss of procollagen: protects against UV-induced loss of procollagen
